# Assay results from patent US4333952A, “Growth promotors for ruminants” (Beecham Group Limited, priority 1979, dated 1982).
# Where two headings read alike, the source gives them in different places.
# Columns and labels:
# [1] = test system: rumen fluid; assay: in vitro incubation of buffered rumen fluid (methane inhibition, propionate enhancement, headspace gases and volatile fatty acids); format: cell-based, sheep; conditions: for inhibition at 10 ppm / activation at 10 ppm / inhibition at 2 ppm / inhibition at 3 ppm / activation at 2 ppm / activation at 3 ppm / inhibition at 5 ppm / activation at 5 ppm: Ovis aries
# Method: The compounds were tested for their ability to reduce or inhibit methane production and to enhance propionate formation. The method used is as follows:
# The screening system is in vitro incubation of buffered rumen fluid with, or without, the addition of the test compound.
# Rumen fluid is removed by suction from two rumenfistulated sheep, just before feeding. The fluid is strained and mixed. The incubation is for twenty hours in a shaking water-bath at 39° C. Each incubation flask contains: 30 ml McDougall's bicarbonate buffer, pH 6.7-6.9, 10 ml strained rumen fluid, 200 mg substrate (the substrate is a ground sample of the diet on which the sheep has been fed) and 1 ml 10% aqueous ethanol containing 0.2% Tween 80 and the compound under examination. Samples are taken at the end of the incubation period for analysis of headspace gases and volatile fatty acids, by g.l.c.
# The compounds were tested at 10 ppm/flask, except for the compounds of Examples 9 and 10 which were tested at 5 ppm/flask.
# Selected compounds were also tested according to the above protocol at doses of 2 and 3 ppm, the results being given in Table 2 below.
# The compound of Example 1 was further tested in an in vitro a dose response study, according to the protocol above, at the doses shown in Table 3 below.
# [2] = test system: methanogenesis; assay: in vivo gas collection screen in sheep (respirometer, methanogenesis and hydrogen evolution); conditions: 5 week period
# Method: In vivo studies in a "gas collection screen":
# Groups of 4, 50 kg sheep were fed diets containing one of the compounds of formula (I) over a 5 week period. A different sheep from each group was put into a respirometer for 24 hours each day. Each sheep was thus monitored once in every […], gas flow was maintained by a peristaltic pump and measured using a commercial gas meter and a sub-sample collected in a butyl-rubber inner tube.
# [3] = 20 h, read-out: VFA production % difference from control, Acetate
# [4] = 20 h, read-out: VFA production % difference from control, Butyrate
# [5] = 20 h, read-out: VFA production % difference from control, Propionate
# [6] = 20 h, read-out: VFA production % difference from control, TVFA
# [7] = 10 ppm/flask, 20 h, 39° C., read-out: % inhibition of methane
# [8] = 20 h, read-out: VFA production % change from control, Acetate
# [9] = 20 h, read-out: VFA production % change from control, Butyrate
# [10] = 20 h, read-out: VFA production % change from control, Propionate
# [11] = 20 h, read-out: VFA production % change from control, TVFA
# [12] = Table 2, 2 ppm, read-out: % inhibition of methane
# [13] = Table 2, 3 ppm, read-out: % inhibition of methane
# [14] = 5 ppm/flask (Examples 9 and 10), 20 h, 39° C.
SMILES,"% hydrogen present ([1]; 10 ppm/flask, 20 h, 39° C.) [%]","Molar % VFA Acetate ([1]; 10 ppm/flask, 20 h, 39° C.) [Molar %]","Molar % VFA Butyrate ([1]; 10 ppm/flask, 20 h, 39° C.) [Molar %]","Molar % VFA Propionate ([1]; 10 ppm/flask, 20 h, 39° C.) [Molar %]","TVFA ([1]; 10 ppm/flask, 20 h, 39° C.) [μM/ml]","inhibition at 10 ppm [1, 3] [%]","activation at 10 ppm [1, 4] [%]","activation at 10 ppm [1, 5] [%]","inhibition at 10 ppm [1, 6] [%]","inhibition at 10 ppm [1, 7] [%]","inhibition at 2 ppm [1, 8] [%]","inhibition at 3 ppm [1, 8] [%]","activation at 2 ppm [1, 9] [%]","activation at 3 ppm [1, 9] [%]","activation at 2 ppm [1, 10] [%]","activation at 3 ppm [1, 10] [%]","inhibition at 2 ppm [1, 11] [%]","inhibition at 3 ppm [1, 11] [%]","inhibition at 2 ppm [1, 12] [%]","% hydrogen in headspace gases ([1]; Table 2, 2 ppm) [%]",further results
"O=C(CC(O)C(Cl)(Cl)Cl)c1ccc(Cl)cc1 (stereo not drawn) [Example 8, 1-p-Chlorophenacyl-2-hydroxy-3-trichloropropane]",0.05,63.5,9.8,23.7,50.5,23.1,50.7,42.4,6.5,34.1,–,–,–,–,–,–,–,–,–,–,–
"OC(COc1ccc(Cl)cc1)C(Cl)(Cl)Cl (stereo not drawn) [Example 2, 1,1,1-Trichloro-3-p-chlorophenoxypropan-2-ol]",2.49,58.5,14.1,24.1,56.9,38.5,22.7,53.2,17.5,98.5,22.6,39,2,10.2,25.2,28.4,11.5,22.7,33.3,0.09,"inhibition at 3 ppm [1, 13]: 54.5%; % hydrogen in headspace gases ([1]; Table 2, 3 ppm): 0.8%"
"OC(CC(O)C(Cl)(Cl)Cl)c1ccc(Cl)cc1 (stereo not drawn) [Example 9, 1-p-Chlorophenyl-1,3-dihydroxy-4,4,4-trichlorobutane]",–,–,–,–,–,–,–,–,–,–,–,–,–,–,–,–,–,–,–,–,"% hydrogen present [1, 14]: 0.64%; Molar % VFA Acetate [1, 14]: 59.9 Molar %; Molar % VFA Butyrate [1, 14]: 10.7 Molar %; Molar % VFA Propionate [1, 14]: 26.4 Molar %; TVFA [1, 14]: 47.7 μM/ml; inhibition at 5 ppm [1, 3]: 38.5%; activation at 5 ppm [1, 4]: 59.7%; activation at 5 ppm [1, 5]: 53.2%; inhibition at 5 ppm [1, 6]: 15.5%; inhibition at 5 ppm ([1]; 5 ppm/flask (Examples 9 and 10), 20 h, 39° C., read-out: % inhibition of methane): 50.7%"
"OC(CN(CC(O)C(Cl)(Cl)Cl)c1ccccc1)C(Cl)(Cl)Cl (stereo not drawn) [Example 7, N,N-Di (3,3,3-Trichloro-2-hydroxypropyl)aniline]",2.17,61.9,9.72,24.8,56.2,–,–,–,–,87.9,–,–,–,–,–,–,–,–,–,–,"inhibition at 10 ppm ([1]; 10 ppm/flask, 20 h, 39° C., read-out: VFA production % difference from control, Acetate): 40.8%; activation at 10 ppm ([1]; 10 ppm/flask, 20 h, 39° C., read-out: VFA production % difference from control, Butyrate): 18.9%; activation at 10 ppm ([1]; 10 ppm/flask, 20 h, 39° C., read-out: VFA production % difference from control, Propionate): 39%; inhibition at 10 ppm ([1]; 10 ppm/flask, 20 h, 39° C., read-out: VFA production % difference from control, TVFA): 24.7%"
"OC(CNc1ccccc1)C(Cl)(Cl)Cl (stereo not drawn) [Example 4, 1,1,1-Trichloro-3-anilinopropan-2-ol]",2.13,59.3,13.7,23.9,57.2,36.4,18.2,52.8,16.7,98.5,12.8,–,3,–,27.2,–,4,–,20.8,0.09,"Hydrogen evolution ([2]; sheep, 75 mg/day in feed): 1.8 liters/24 hours; % inhibition of methanogenesis ([2]; sheep, 75 mg/day in feed, * = significantly different from control, p < 0.01): 11.5%"
"CC[C@@]1([C@@H]2O[C@@H]([C@H]3O[C@@](O)(CO)[C@H](C)C[C@@H]3C)C[C@@H]2C)CC[C@H]([C@]2(C)CC[C@]3(C[C@H](O)[C@@H](C)[C@@H]([C@@H](C)[C@@H](OC)[C@H](C)C(=O)O)O3)O2)O1 [Monensin, reference compound]",–,–,–,–,–,–,–,–,–,–,–,–,–,–,–,–,–,–,–,–,"methane inhibition ([2]; 50 mg/sheep/day, same study): 41%"
"OC(COc1ccccc1Br)C(Cl)(Cl)Cl (stereo not drawn) [Example 3, 1,1,1-Trichloro-3-o-bromophenoxypropan-2-ol]",2.30,59.1,14.2,24.1,57.2,36.8,25,54.3,16.7,97.8,9.1,35.5,3.4,26.8,11.1,43.1,4.5,15.6,17.8,0.02,"inhibition at 3 ppm [1, 13]: 54.7%; % hydrogen in headspace gases ([1]; Table 2, 3 ppm): 0.66%"
"COc1cccc(NCC(O)C(Cl)(Cl)Cl)c1 (stereo not drawn) [Example 6, 1,1,1-Trichloro-3-(m-methoxy)anilinopropan-2-ol]",2.59,63.2,8.50,24.9,55.4,40.4,-6.6,36.8,25.3,97.5,9.3,41.8,15.3,15.2,12.6,41.7,4.5,21.5,11.5,0.03,"inhibition at 3 ppm [1, 13]: 77.8%; % hydrogen in headspace gases ([1]; Table 2, 3 ppm): 1.09%"
"CN(CC(O)C(Cl)(Cl)Cl)c1ccccc1 (stereo not drawn) [Example 5, 1,1,1-Trichloro-3-N-methylanilinopropan-2-ol]",1.9,59.1,14.0,24.0,57.5,36.3,23.9,54.6,16.1,92.7,4.3,–,0.8,–,0.8,–,3.1,–,4.2,0.02,–
"CN1CCN(CC(O)C(Cl)(Cl)Cl)CC1 (stereo not drawn) [Compound A, reference compound]",0.062,65.3,9.13,21.9,56.7,35,9,19.9,22.6,50.6,–,–,–,–,–,–,–,–,–,–,–
